Reference: PubChem BioAssay (NCI)
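Test compounds were applied to cells in 96-well plates for 48 hours at 5 doses. Definition used: TGI = concentration required for complete inhibition of growth.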

Tests used:
Experiment in all cases: inhibition of tumour cell growth, NCI panel, 48 h
[1] = test system: UACC-257 melanoma
[2] = test system: RPMI-8226 leukemia
[3] = test system: SN12C renal
[4] = test system: SW-620 colon
[5] = test system: CAKI-1 renal
[6] = test system: MDA-MB-435
[7] = test system: EKVX NSCLC
[8] = test system: DMS 114 small cell lung
[9] = test system: DU-145 prostate
[10] = test system: SK-MEL-5 melanoma
[11] = test system: TK-10 renal
[12] = test system: SNB-78 CNS
[13] = test system: HCC-2998 colon
[14] = test system: MDA-N
[15] = test system: DMS 273 small cell lung
[16] = test system: SF-268 CNS
[17] = test system: UACC-62 melanoma
[18] = test system: A498 renal
[19] = test system: IGROV1 ovarian
[20] = test system: HL-60(TB) leukemia
[21] = test system: MALME-3M melanoma
[22] = test system: DLD-1 colon
[23] = test system: LXFL 529 NSCLC
[24] = test system: HOP-18 NSCLC
[25] = test system: XF 498 CNS
[26] = test system: HCT-15 colon
[27] = test system: NCI-H522 lung
[28] = test system: 786-0 renal
[29] = test system: NCI-H460 lung
[30] = test system: ACHN renal
[31] = test system: SK-OV-3 ovarian
[32] = test system: OVCAR-5 ovarian
[33] = test system: LOX IMVI melanoma
[34] = test system: HOP-92 NSCLC
[35] = test system: UO-31 renal
[36] = test system: T-47D breast
[37] = test system: RXF 393 renal
[38] = test system: OVCAR-4 ovarian
[39] = test system: KM20L2 colon
[40] = test system: SF-295 CNS
[41] = test system: OVCAR-8 ovarian
[42] = test system: CCRF-CEM leukemia
[43] = test system: SF-539 CNS
[44] = test system: M14 melanoma
[45] = test system: HT29 colon
[46] = test system: COLO 205 colon
[47] = test system: HS 578T breast
[48] = test system: KM12 colon
[49] = test system: BT-549 breast
[50] = test system: HCT-116 colon
[51] = test system: SK-MEL-28 melanoma
[52] = test system: PC-3 prostate
[53] = test system: HOP-62 NSCLC
[54] = test system: M19-MEL melanoma
[55] = test system: MOLT-4 leukemia
[56] = test system: U251 CNS
[57] = test system: SNB-75 CNS
[58] = test system: NCI-H226 lung
[59] = test system: SR leukemia
[60] = test system: K-562 leukemia
[61] = test system: SNB-19 CNS
[62] = test system: NCI-H23 lung
[63] = test system: A549 NSCLC
[64] = test system: SK-MEL-2 melanoma
[65] = test system: OVCAR-3 ovarian
[66] = test system: RXF-631 renal

CC1(C)OCC(CO)(Nc2nc(N3CC3)nc(N3CC3)n2)CO1
TGI [1]: 45.1 µM | TGI [2]: > 100 µM | TGI [3]: 58.6 µM | TGI [4]: 64.1 µM | TGI [5]: 13.8 µM | TGI [6]: 46.4 µM | TGI [7]: 90.8 µM | TGI [8]: 27.2 µM | TGI [9]: 8.91 µM | TGI [10]: 22.1 µM | TGI [11]: 67.5 µM | TGI [12]: > 100 µM | TGI [13]: 36.3 µM | TGI [14]: 27.9 µM | TGI [15]: 25.8 µM | TGI [16]: 27.6 µM | TGI [17]: 14 µM | TGI [18]: 24.2 µM | TGI [19]: 58.5 µM | TGI [20]: 25.3 µM | TGI [21]: 42.1 µM | TGI [22]: > 93 µM | TGI [23]: > 100 µM | TGI [24]: > 87.6 µM | TGI [25]: 29.3 µM | TGI [26]: 45.8 µM | TGI [27]: 33.8 µM | TGI [28]: 18.7 µM | TGI [29]: 29 µM | TGI [30]: 13.9 µM | TGI [31]: 34.2 µM | TGI [32]: 50.3 µM | TGI [33]: 32.4 µM | TGI [34]: 51.5 µM | TGI [35]: 23.1 µM | TGI [36]: 45 µM | TGI [37]: 28.6 µM | TGI [38]: 41.9 µM | TGI [39]: 51.8 µM | TGI [40]: 20.3 µM | TGI [41]: 33.1 µM | TGI [42]: > 83.4 µM | TGI [43]: 27 µM | TGI [44]: 25.5 µM | TGI [45]: 53.7 µM | TGI [46]: 60.9 µM | TGI [47]: 42.6 µM | TGI [48]: 43.3 µM | TGI [49]: 93.5 µM | TGI [50]: 27.5 µM | TGI [51]: 53 µM | TGI [52]: > 100 µM | TGI [53]: 30.9 µM | TGI [54]: 34.4 µM | TGI [55]: 19 µM | TGI [56]: 31.7 µM | TGI [57]: 33.1 µM | TGI [58]: 28.5 µM | TGI [59]: 28.9 µM | TGI [60]: > 100 µM | TGI [61]: 62.1 µM | TGI [62]: 16.3 µM | TGI [63]: 34.3 µM | TGI [64]: 40 µM | TGI [65]: 49.4 µM

CC(c1cccc2ccccc12)/[N+]([O-])=C/c1ccccc1 (centres undefined)
TGI [1]: > 100 µM | TGI [2]: > 100 µM | TGI [4]: > 100 µM | TGI [66]: > 100 µM | TGI [7]: > 100 µM | TGI [8]: > 100 µM | TGI [10]: > 100 µM | TGI [11]: > 100 µM | TGI [13]: > 100 µM | TGI [15]: > 100 µM | TGI [16]: > 100 µM | TGI [18]: > 100 µM | TGI [19]: > 100 µM | TGI [20]: > 100 µM | TGI [21]: > 100 µM | TGI [22]: > 100 µM | TGI [23]: > 100 µM | TGI [24]: > 100 µM | TGI [25]: > 100 µM | TGI [27]: > 100 µM | TGI [28]: > 100 µM | TGI [29]: > 100 µM | TGI [30]: > 100 µM | TGI [31]: > 100 µM | TGI [32]: > 100 µM | TGI [33]: > 100 µM | TGI [34]: > 100 µM | TGI [35]: > 100 µM | TGI [37]: > 100 µM | TGI [39]: > 100 µM | TGI [40]: > 100 µM | TGI [41]: > 100 µM | TGI [42]: > 100 µM | TGI [43]: > 100 µM | TGI [45]: > 100 µM | TGI [46]: > 100 µM | TGI [48]: > 100 µM | TGI [50]: > 100 µM | TGI [51]: > 100 µM | TGI [53]: > 100 µM | TGI [55]: > 100 µM | TGI [56]: > 100 µM | TGI [57]: > 100 µM | TGI [60]: > 100 µM | TGI [61]: > 100 µM | TGI [62]: > 100 µM | TGI [63]: > 100 µM | TGI [64]: > 100 µM | TGI [65]: > 100 µM
